The values that follow come from patent publication US20050209278A1, “Piperidinyl- and piperazinyl-sulfonylmethyl hydroxamic acids and their use as protease inhibitors” (priority 2002, published 2005).

What is called Ki is a measure of affinity in units of concentration, obtained from inhibition or displacement.

Where two headings read alike, the source gives them in different places.

One assay concerns the target T1, MMP-14 (Homo sapiens, UniProt P50281).
T1 construct: The catalytic domain enzyme was expressed in E. coli inclusion bodies, solubilized in urea; made in house
Description: In vitro MMP inhibition, Ki determination (fluorogenic substrate II). The class given is biochemical. As to conditions: read-out: MMP-14 Ki. The method in brief: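 E. coli-expressed, refolded MMP-14 catalytic domain, activated with APMA or trypsin, in 100 mM Tris-HCl pH 7.5, 100 mM NaCl, 10 mM CaCl2, 0.05% Brij-type detergent. Apparent Ki by Morrison-equation regression of velocity vs inhibitor and enzyme concentration.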

Another assay addresses T2, MMP-2 (Homo sapiens, UniProt P08253).
T2 construct: made in house; host or cells: MMP-2-transfected p2AHT2 cells
T2 sequence (P08253 110-660): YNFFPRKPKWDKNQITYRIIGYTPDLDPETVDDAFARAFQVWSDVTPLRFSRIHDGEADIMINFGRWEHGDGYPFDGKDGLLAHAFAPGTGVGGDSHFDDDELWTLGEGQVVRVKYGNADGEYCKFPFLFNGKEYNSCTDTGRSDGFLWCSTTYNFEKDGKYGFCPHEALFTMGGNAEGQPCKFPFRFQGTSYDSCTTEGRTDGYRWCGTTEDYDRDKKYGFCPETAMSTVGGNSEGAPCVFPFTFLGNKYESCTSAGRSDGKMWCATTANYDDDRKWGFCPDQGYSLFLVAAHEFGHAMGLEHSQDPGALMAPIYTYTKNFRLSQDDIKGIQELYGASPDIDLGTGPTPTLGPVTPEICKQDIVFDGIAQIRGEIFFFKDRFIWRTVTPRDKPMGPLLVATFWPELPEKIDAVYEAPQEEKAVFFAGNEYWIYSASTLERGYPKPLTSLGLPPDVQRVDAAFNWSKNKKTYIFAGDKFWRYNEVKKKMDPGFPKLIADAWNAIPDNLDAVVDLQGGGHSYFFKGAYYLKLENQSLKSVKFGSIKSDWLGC
The assay is described as above. As to conditions: read-out: MMP-2 Ki. It is filed as biochemical.

Consider `O=C(NO)C1(S(=O)(=O)N2CCN(c3ncc(-c4ccc(Cl)cc4)cn3)CC2)CCOCC1` [Example 66], for which the values for the Ki at MMP-14 (value not in parenthesis) and at MMP-2 (value not in parenthesis) were 1120 nM and 2.52 nM, respectively.

As for `CCCCc1cnc(N2CCN(S(=O)(=O)C3(C(=O)NO)CCOCC3)CC2)nc1` [Example 105], the Ki at MMP-14 (value not in parenthesis) was found to be 1660 nM; on MMP-2 (value not in parenthesis) it was 2.94 nM.

As for `CCCCc1ccc(N2CCN(S(=O)(=O)C3(C(=O)NO)CCOCC3)CC2)nc1` [Example 168], the Ki on MMP-14 (value not in parenthesis) was determined as 534 nM; on MMP-2 (value not in parenthesis), 0.15 nM.

As to `CCc1ccc(-c2ccc(C3CCN(S(=O)(=O)C4(C(=O)NO)CCOCC4)CC3)nc2)cc1` [Example 393], the figures for the Ki on MMP-14 (value outside parentheses) and on MMP-2 (value outside parentheses) were 194 nM and 2.23 nM, respectively.

Consider `CCCCc1ccc(C2CCN(S(=O)(=O)C3(C(=O)NO)CCN(CCOC)CC3)CC2)nc1` [Example 397], for which the Ki on MMP-14 (value outside parentheses) was determined as 2920 nM; on MMP-2 (value outside parentheses) it was 0.69 nM.

Take `O=C(NO)C1(S(=O)(=O)N2CCC(c3ccc(OCc4ccccc4)cn3)CC2)CCOCC1` [Example 398]: the Ki turned out to be 514 nM on MMP-14 (value outside parentheses) and 1.31 nM on MMP-2 (value outside parentheses).

With `N#Cc1ccc(-c2cnc(N3CCN(S(=O)(=O)C4(C(=O)NO)CCOCC4)CC3)s2)cc1` [Example 399], the Ki amounted to 9.69 nM on MMP-14 (value outside parentheses) and 0.05 nM on MMP-2 (value outside parentheses).

Take `CCCC#Cc1cnc(N2CCN(S(=O)(=O)C3(C(=O)NO)CCOCC3)CC2)s1` [Example 400]: the Ki turned out to be 724 nM on MMP-14 (value outside parentheses) and 0.71 nM at MMP-2 (value outside parentheses).

As to `CCCCCC/C=C\C1CCN(S(=O)(=O)C2(C(=O)NO)CCOCC2)CC1` [Example 401], the Ki at MMP-14 (value outside parentheses) was determined as 2720 nM; on MMP-2 (value outside parentheses), 12.8 nM.

On to `CCCCCC/C=C/C1CCN(S(=O)(=O)C2(C(=O)NO)CCOCC2)CC1` [Example 402], for which the Ki on MMP-2 (value outside parentheses) stood at 0.83 nM.

For the compound `O=C(NO)C1(S(=O)(=O)N2CCC(COCc3ccc(C(F)(F)F)cc3)CC2)CCOCC1` [Example 403], the Ki at MMP-14 (value outside parentheses) amounted to 129 nM; at MMP-2 (value outside parentheses), 4.96 nM.

With `O=C(NO)C1(S(=O)(=O)N2CCC(COCc3ccc(OC(F)(F)F)cc3)CC2)CCOCC1` [Example 404], the inhibitory constant (Ki) on MMP-14 (value outside parentheses) worked out at 71.8 nM; on MMP-2 (value outside parentheses), 1.41 nM.

For `O=C(NO)C1(S(=O)(=O)N2CCC(COCc3ccc(SC(F)(F)F)cc3)CC2)CCOCC1` [Example 405], the Ki was 95.7 nM on MMP-14 (value outside parentheses) and 1.27 nM on MMP-2 (value outside parentheses).

Consider `CCCCCCCOC1CCN(S(=O)(=O)C2(C(=O)NO)CCOCC2)CC1` [Example 406], for which the inhibition constant Ki at MMP-14 (value outside parentheses) came to 1190 nM; at MMP-2 (value outside parentheses), 1.76 nM.

`O=C(NO)C1(S(=O)(=O)N2CCC(c3ccc(-c4cccs4)c(F)c3)CC2)CCOCC1` [Example 407]: the inhibitory constant (Ki) on MMP-14 (value outside parentheses) came out at 3030 nM; on MMP-2 (value outside parentheses), 0.361 nM.

With `O=C(NO)C1(S(=O)(=O)N2CCC(c3ccc(N4CCCC4)cn3)CC2)CCOCC1` [Example 408], the inhibition constant Ki at MMP-14 (value outside parentheses) is 1050 nM; at MMP-2 (value outside parentheses) it was 6.48 nM.

Consider `O=C(NO)C1(S(=O)(=O)N2CCC(c3ccc(-c4ccccn4)cn3)CC2)CCOCC1` [Example 409], for which the Ki on MMP-14 (value outside parentheses) turned out to be 1770 nM; at MMP-2 (value outside parentheses) it was 24.3 nM.

On to `CCCCOc1ccc(C2CCN(S(=O)(=O)C3(C(=O)NO)CCOCC3)CC2)nc1` [Example 410], for which the Ki on MMP-14 (value outside parentheses) amounted to 1360 nM; on MMP-2 (value outside parentheses) it was 0.55 nM.

Take `CCC(F)(F)CCc1ccc(C2CCN(S(=O)(=O)C3(C(=O)NO)CCOCC3)CC2)cn1` [Example 411]: the Ki is above 10000 nM at MMP-14 (value outside parentheses) and 15.3 nM on MMP-2 (value outside parentheses).

For the compound `Cc1ccc(-c2csc(N3CCN(S(=O)(=O)C4(C(=O)NO)CCOCC4)CC3)n2)cc1` [Example 412], the inhibition constant (Ki) at MMP-14 (value outside parentheses) and on MMP-2 (value outside parentheses) was above 10000 nM throughout.

Regarding `Cc1cccc(-c2csc(N3CCN(S(=O)(=O)C4(C(=O)NO)CCOCC4)CC3)n2)c1` [Example 413], the Ki on MMP-14 (value outside parentheses) is above 10000 nM; on MMP-2 (value outside parentheses), 6010 nM.

As to `O=C(NO)C1(S(=O)(=O)N2CCN(c3nc(-c4ccccc4)cs3)CC2)CCOCC1` [Example 415], the results for the Ki on MMP-14 (value outside parentheses) and at MMP-2 (value outside parentheses) were above 10000 nM and 2880 nM, respectively.

As to `Cc1ccc(-c2ccc(C3CCN(S(=O)(=O)C4(C(=O)NO)CCOCC4)CC3)nc2)s1` [Example 416], the inhibitory constant (Ki) was 506 nM on MMP-14 (value outside parentheses) and 2.07 nM at MMP-2 (value outside parentheses).

As to `O=C(NO)C1(S(=O)(=O)N2CCC(c3ccc(-c4cccc(F)c4)cn3)CC2)CCOCC1` [Example 417], the Ki at MMP-14 (value outside parentheses) was found to be 1300 nM; on MMP-2 (value outside parentheses) it was 4.13 nM.

With `O=C(NO)C1(S(=O)(=O)N2CCC(c3ccc(OCCC(F)(F)F)cn3)CC2)CCOCC1` [Example 418], the inhibition constant (Ki) at MMP-14 (value outside parentheses) was 5360 nM; on MMP-2 (value outside parentheses), 0.97 nM.

In the case of `O=C(NO)C1(S(=O)(=O)N2CCN(c3ccc(-c4nn[nH]n4)cc3)CC2)CCOCC1` [Example 419], the Ki was above 10000 nM on MMP-14 (value outside parentheses) and 27.9 nM on MMP-2 (value outside parentheses).

Take `CCCCc1ccc(C2(O)CCN(S(=O)(=O)C3(C(=O)NO)CCOCC3)CC2)nc1` [Example 420]: the Ki on MMP-14 (value outside parentheses) was above 10000 nM; on MMP-2 (value outside parentheses), 181 nM.
